Experimental findings from patent publication US5698581A, “Substituted N-heteroaroylguanidines, a process for their preparation, their use as a medicament or diagnostic agent, and a medicament containing them” (Hoechst Aktiengesellschaft, priority 1994, dated 1997) are described below.

The target in the experiment is T1, Na^+ /H^+ exchanger of rabbit erythrocytes (Oryctolagus cuniculus, UniProt P23791).
T1 construct: determine the Na^+ influx into the erythrocytes via Na^+ /H^+ exchange; endogenous in cells; host or cells: erythrocytes in whole blood of cholesterol-fed New Zealand White rabbits
T1 sequence (P23791 whole entry): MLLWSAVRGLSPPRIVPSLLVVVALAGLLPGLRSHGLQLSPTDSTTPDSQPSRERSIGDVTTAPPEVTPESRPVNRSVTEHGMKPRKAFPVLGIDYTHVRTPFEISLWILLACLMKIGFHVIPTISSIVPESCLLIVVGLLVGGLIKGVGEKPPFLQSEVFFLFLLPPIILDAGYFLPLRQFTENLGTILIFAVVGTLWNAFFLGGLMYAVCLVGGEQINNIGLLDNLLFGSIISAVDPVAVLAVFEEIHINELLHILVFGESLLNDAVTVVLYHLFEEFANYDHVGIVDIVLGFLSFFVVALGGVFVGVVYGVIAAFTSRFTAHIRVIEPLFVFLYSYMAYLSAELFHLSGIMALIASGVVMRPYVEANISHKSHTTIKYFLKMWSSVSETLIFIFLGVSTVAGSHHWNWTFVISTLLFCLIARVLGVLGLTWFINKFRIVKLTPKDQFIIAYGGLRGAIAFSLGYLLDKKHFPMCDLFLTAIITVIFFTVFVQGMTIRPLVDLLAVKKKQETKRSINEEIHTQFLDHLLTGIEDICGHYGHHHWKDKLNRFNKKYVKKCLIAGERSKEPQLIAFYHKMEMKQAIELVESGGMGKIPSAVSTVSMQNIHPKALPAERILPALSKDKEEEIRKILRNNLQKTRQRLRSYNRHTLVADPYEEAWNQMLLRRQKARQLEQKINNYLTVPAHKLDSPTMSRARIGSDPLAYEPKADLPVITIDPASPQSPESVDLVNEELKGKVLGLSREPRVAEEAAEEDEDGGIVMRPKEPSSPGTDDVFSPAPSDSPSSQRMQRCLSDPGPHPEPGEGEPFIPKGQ
In words: Inhibition of the Na^+ /H^+ exchanger of rabbit erythrocytes (amiloride-sensitive sodium influx, flame photometry). The format is cell-based, rabbit (New Zealand White). Conditions: pH 7.4, 37° C., rabbits on 2% cholesterol diet. An excerpt: Inhibition of the Na^+ /H^+ exchanger of rabbit erythrocytes
New Zealand White rabbits (Ivanovas) were given a standard diet containing 2% cholesterol for six weeks in order to activate Na^+ /H^+ exchange and thus to be able to use flame photometry to determine the Na^+ influx into the erythrocytes via Na^+ /H^+ exchange. The blood was removed from the aural arteries and rendered incoagulable by the addition of 25 IU of potassium heparin. One part of each sample was used for the duplicate determination of the hematocrit by centrifugation. Aliquots of in each case 100 μl were employed for measuring the initial content of Na^+ in the erythrocytes.
In order to determine the amiloride-sensitive sodium influx, 100 μl of each blood sample were in each case incubated, at pH 7.4 and 37° C., in 5 ml of a hyperosmolar salt/sucrose medium (mmol/l: 140 NaCl, 3 KCl, 150 sucrose, 0.1 ouabain, 20 tris(hydroxymethyl)aminomethane). The erythrocytes were then washed three times with ice cold MgCl2 /ouabain solution (mmol/l: 112 MgCl2, 0.1 ouabain) and hemolyzed in 2.0 ml of distilled water. The intracellular content of sodium was determined by flame photometry.
The nett influx of Na^+ was calculated from the difference between the initial sodium values and the sodium content of the erythrocytes following incubation. The amiloride-inhibitable sodium Influx was given by the difference in the sodium content of the erythrocytes following incubation with and without 3×10^-4 mol/l amiloride. The same procedure was also used in the case of the compounds according to the invention.

The IC50 is the concentration needed to halve the response being measured. A high value points to lower potency. For `Cn1c(C(=O)N=C(N)N)ccc1C(F)(C(F)(F)F)C(F)(F)F` [Example 1, 5-Heptafluoroisopropyl-1-methylpyrrole-2-carboguanidide], half-maximal inhibition (IC50) was put at 300 nM.

In turn, `Cn1c(C(=O)N=C(N)N)ccc1C(F)(F)C(F)(F)C(F)(F)F` [Example 2, 5-Heptafluoro-n-propyl-1-methylpyrrole-2-carboguanidide] gave a half-inhibitory concentration (IC50) of 1000 nM.

Consider `Cn1c(C(=O)N=C(N)N)ccc1C(F)(F)C(F)(F)F` [Example 3, 5-Pentafluoroethyl-1-methylpyrrole-2-carboguanidide], for which the 50% inhibitory concentration (IC50) was found to be 300 nM.

In turn, `Cn1c(C(=O)N=C(N)N)ccc1C(F)(F)F` [Example 4, 5-Trifluoromethyl-1-methylpyrrole-2-carboguanidide] registered an IC50 of 200 nM.

Molecule `Cn1cccc1C(=O)N=C(N)N` [Example 5, 1-Methylpyrrole-2-carboguanidide] showed an IC50 of 5000 nM.

As for `CC(C)c1sc(C(=O)N=C(N)N)cc1S(C)(=O)=O` [Example 6, 5-Isopropyl-4-methylsulfonylthiophene-2-carboguanidide], half-maximal inhibition (IC50) was put at 500 nM.

In turn, `Cc1ccc(C(=O)N=C(N)N)s1` [Example 7, 5Methylthiophene-2-carboguanidide] yielded an IC50 of 3000 nM.

Turning to `NC(N)=NC(=O)c1cc(Br)c(Br)s1` [Example 8, 4,5-Dibromothiophene-2-carboguanidide], the IC50 was found to be 500 nM.
